# Measurements as given in patent publication US12022844B2, “Nutritional composition, food/drink composition using nutritional composition, and modified milk powder using nutritional composition” (priority 2018, dated 2024).
# Experiments:
# Format in all cases: cell-based
# [1] = tested on: Bifidobacterium animalis subspecies lactis MCC-525; experiment: Mix-culturing with Bifidobacterium bifidum by HMO as sugar source, quantitative PCR; details: for Proliferation rate (number of bacteria after mix-culturing for 8 h/number of bacteria after single bacterial culturing): MCC-525 mix-cultured with Bifidobacterium bifidum (NITE BP-02429), sugar source 2%, Table 8; for Proliferation rate of MCC-525 (mix-cultured bacteria after 8 h/single bacterial culturing 8 h): Table 10; for number of proliferating bacteria of MCC-525 in combination with seven strains of Bifidobacterium bifidum compared to single bacterium culture: summary of Table 10
# Protocol: (§1) A10% solution of glucose (manufactured by Nakarai Tesque Inc.), and 2′-FL ((≥95%) Funakoshi, available from sigma), and LNnT (manufactured by ELICITYL) as examples of HMOs was prepared with ion exchanged water, and was subjected to sterile filtration using Millex-GV (SLGV033RS).
# (§2) Lactobacilli MRS Broth (BD) (0.05% L-Cysteine Hydrochloride for Bacteria of the genus Bifidobacterium) was added to strains of Table 1 below (bacteria belonging to Bifidobacterium bifidum) and Table 2 below. After a sterilization treatment, 3% of the bacterial solution was inoculated, and anaerobically cultured (pre-pre cultured) at 37° C. for 16 h.
# (§3) The following day, 1% glucose was added to a modified BL agar medium (“Studies on Bifidobacteria” by Tomotari Mitsuoka, p. 306, Japan Bifidus Foundation, issued in 1994) noted in Table 3, for preparation. After a sterilization treatment, 3% of the pre-pre cultured bacterial solution was inoculated, and anaerobically pre-cultured (pre-cultured) at 37° C. for 12 h.
# (§4) The pre-cultured bacterial solution was collected and washed once with a sterile physiological saline solution. Then, mass-up was performed to an equal volume with the modified BL agar medium (“Studies on Bifidobacteria” by Tomotari Mitsuoka, p. 306, Japan Bifidus Foundation, issued in 1994) noted in Table 3 to prepare a suspended bacterial solution.
# (§5) The modified BL agar medium (“Studies on Bifidobacteria” by Tomotari Mitsuoka, p. 306, Japan Bifidus Foundation, issued in 1994) noted in Table 3 was prepared at a capacity of 60%, and was subjected to an autoclave sterilization treatment. Then, 40% of each sugar solution prepared in (1) was aseptically added so as to prepare a medium with a sugar concentration of 4%.
# (§6) The medium prepared in the above (3) was dispensed at a capacity that is half the capacity for aseptic culturing in a 96-well plate, and each of the bacterial solutions of strains of bacteria belonging to Bifidobacterium bifidum in Table 1 and probiotics having a low ability to assimilate human milk oligosaccharides in Table 2, which was prepared in the above (2), was dispensed at a remaining […] capacity into the medium prepared in the above (3) such that the bacterial solution had 12%. Then, a final sugar concentration was set to 2%. The plate into which the bacterial solution was dispensed was anaerobically cultured at 37° C. for 8 h.
# (§7) OD650 was measured from each well in the plates in the above (4) and the above (5) before (0 h) culturing and after (8 h) culturing, by MICROPLATE READER SH-9000 (manufactured by CORONA ELECTRIC). After turbidity measurement, microbial cells were collected, and DNA extraction was performed. After the DNA extraction, the number of proliferating bacteria of Bifidobacteria/lactobacilli was analyzed by using the bacterial species-specific primer noted in Table 4, by a quantitative PCR method (see “Structural analysis of intestinal flora”—analysis of bacterial flora in human feces using quantitative PCR—by Kouichi Watanabe, Enterobacteriological journal, 20:35-42, 2006).
# (§8) It was decided to culture Bifidobacterium bifidum (NITE BP-02429) in which availability of 2′-FL or LNnT was found as described above, in combination with strains in Table 2, which cannot use 2′-FL or LNnT. Bifidobacterium bifidum (NITE BP-02429) and the strains in Table 2, which cannot use 2′-FL or LNnT, were mix-cultured by 2′-FL or LNnT as a sugar source, and after culturing for 8 h, the proliferation rate of the number of bacteria of each strain (proliferation rate=the number of bacteria after mix-culturing for 8 h/the number of bacteria after single bacterial culturing) was measured by a quantitative PCR method using each strain-specific oligonucleotide primer noted in Table 4, for the strain in Table 2.
# Seven strains of Bifidobacterium bifidum in Table 1 and Bifidobacterium animalis subspecies lactis MCC-525 which cannot use 2′-FL or LNnT were mix-cultured by 2′-FL or LNnT as a sugar source. […]
# [2] = tested on: bacteria belonging to Bifidobacterium bifidum in Table 1; experiment: Availability of HMOs by bacteria belonging to Bifidobacterium bifidum (single culturing, summary); details: single bacterial culturing, 8 h; summary of Table 5
# Protocol: (§9) The medium prepared in the above (3) was dispensed at a capacity that is half the capacity for culturing in a 96-well plate, and the bacterial solution prepared in the above (2) was dispensed at a remaining half capacity such that the bacterial solution had 6%. Then, a final sugar concentration was set to 2%. The plate into which the bacterial solution was dispensed was anaerobically cultured at 37° C. for 8 h.
# as §7
# Regarding bacteria belonging to Bifidobacterium bifidum in Table 1, each strain was cultured as a single bacterium by 2′-FL or LNnT (HMOs) as a sugar source, and OD650 was measured. […]
# [3] = tested on: Bifidobacterium bifidum NITE P-02648; experiment: Single bacterial culturing with HMO as sugar source, OD650; details: sugar source 2%, anaerobic 37° C., 8 h, Table 5
# Protocol: as §1, §2, §3, §4, §5, §9, §7
# (§10) Regarding bacteria belonging to Bifidobacterium bifidum in Table 1, each strain was cultured as a single bacterium by 2′-FL or LNnT (HMOs) as a sugar source, and OD650 was measured. Table 5 illustrates OD650 increase values after seven strains of the bacteria belonging to Bifidobacterium bifidum in Table 1 were cultured for 8 h by 2′-FL or LNnT as a sugar source.
# [4] = tested on: Bifidobacterium bifidum ATCC29521; experiment: as above; details: ATCC 29521^T, sugar source 2%, anaerobic 37° C., 8 h, Table 5
# Protocol: as §1, §2, §3, §4, §5, §9, §7, §10
# [5] = tested on: Bifidobacterium bifidum NITE BP-02432; experiment: as above; details: sugar source 2%, anaerobic 37° C., 8 h, Table 5
# Protocol: as §1, §2, §3, §4, §5, §9, §7, §10
# [6] = tested on: Bifidobacterium bifidum NITE BP-02433; experiment: as above; details: sugar source 2%, anaerobic 37° C., 8 h, Table 5
# Protocol: as §1, §2, §3, §4, §5, §9, §7, §10
# [7] = tested on: Bifidobacterium bifidum NITE BP-02431; experiment: as above; details: sugar source 2%, anaerobic 37° C., 8 h, Table 5
# Protocol: as §1, §2, §3, §4, §5, §9, §7, §10
# [8] = tested on: Bifidobacterium bifidum NITE BP-1252; experiment: as above; details: sugar source 2%, anaerobic 37° C., 8 h, Table 5
# Protocol: as §1, §2, §3, §4, §5, §9, §7, §10
# [9] = tested on: strains in Table 2 except for Bifidobacterium infantis; experiment: Availability of HMOs by probiotics (single culturing, summary); details: single bacterial culturing, 8 h; summary of Tables 6 and 7
# Protocol: as §9, §7
# Regarding strains in Table 2, each strain was cultured as a single bacterium by 2′-FL or LNnT (HMOs) as a sugar source, and OD650 was measured. The results for 2′-FL are noted in Table 6 below, and the results for LNnT are noted in Table 7 below.
# [10] = tested on: Lactobacillus gasseri ATCC 33323; experiment: Mix-culturing with Bifidobacterium bifidum by HMO as sugar source, quantitative PCR; details: for Proliferation rate (number of bacteria after mix-culturing for 8 h/number of bacteria after single bacterial culturing): ATCC 33323^T mix-cultured with Bifidobacterium bifidum (NITE BP-02429), sugar source 2%, Table 8; for proliferation rate of Lactobacillus gasseri ATCC 33323^T (mix-cultured bacteria after 8 h/single bacterial culturing 8 h): Table 11
# Protocol: as §1, §2, §3, §4, §5, §6, §7, §8
# Seven strains of Bifidobacterium bifidum in Table 1 and Lactobacillus gasseri ATCC 33323^T which cannot use 2′-FL were mix-cultured by 2′-FL as a sugar source. […]
# [11] = mix-cultured with Bifidobacterium bifidum ATCC 29521^T
# [12] = mix-cultured with Bifidobacterium bifidum NITE BP-1252
# [13] = mix-cultured with Bifidobacterium bifidum NITE BP-02429
# [14] = mix-cultured with Bifidobacterium bifidum NITE BP-02431
# [15] = mix-cultured with Bifidobacterium bifidum NITE BP-02432
# [16] = mix-cultured with Bifidobacterium bifidum NITE BP-02433
# [17] = mix-cultured with Bifidobacterium bifidum NITE P-02648
Compound,Proliferation rate (number of bacteria after mix-culturing for 8 h/number of bacteria after single bacterial culturing) [1],"Proliferation rate of MCC-525 (mix-cultured bacteria after 8 h/single bacterial culturing 8 h) [1, 11]","Proliferation rate of MCC-525 (mix-cultured bacteria after 8 h/single bacterial culturing 8 h) [1, 12]","Proliferation rate of MCC-525 (mix-cultured bacteria after 8 h/single bacterial culturing 8 h) [1, 13]","Proliferation rate of MCC-525 (mix-cultured bacteria after 8 h/single bacterial culturing 8 h) [1, 14]","Proliferation rate of MCC-525 (mix-cultured bacteria after 8 h/single bacterial culturing 8 h) [1, 15]","Proliferation rate of MCC-525 (mix-cultured bacteria after 8 h/single bacterial culturing 8 h) [1, 16]","Proliferation rate of MCC-525 (mix-cultured bacteria after 8 h/single bacterial culturing 8 h) [1, 17]",number of proliferating bacteria of MCC-525 in combination with seven strains of Bifidobacterium bifidum compared to single bacterium culture [1],assimilability by all the bacteria belonging to Bifidobacterium bifidum in Table 1 [2],OD650 increase value [3],OD650 increase value [4],OD650 increase value [5],OD650 increase value [6],OD650 increase value [7],OD650 increase value [8],assimilability by strains in Table 2 except for Bifidobacterium infantis [9],Proliferation rate (number of bacteria after mix-culturing for 8 h/number of bacteria after single bacterial culturing) [10],other results
2′-fucosyllactose [2′-FL],2.62,2.01,2.06,4.85,3.82,2.45,3.67,4.35,promoted,had assimilability,0.470,0.060,0.430,0.431,0.037,0.225,"had no assimilability in 2′-FL or LNnT (HMOs), or a low assimilability",3.70,"proliferation rate of Lactobacillus gasseri ATCC 33323^T (mix-cultured bacteria after 8 h/single bacterial culturing 8 h) [10, 11]: 1.45; proliferation rate of Lactobacillus gasseri ATCC 33323^T (mix-cultured bacteria after 8 h/single bacterial culturing 8 h) [10, 12]: 3.99; proliferation rate of Lactobacillus gasseri ATCC 33323^T (mix-cultured bacteria after 8 h/single bacterial culturing 8 h) [10, 13]: 2.33; proliferation rate of Lactobacillus gasseri ATCC 33323^T (mix-cultured bacteria after 8 h/single bacterial culturing 8 h) [10, 14]: 4.42; proliferation rate of Lactobacillus gasseri ATCC 33323^T (mix-cultured bacteria after 8 h/single bacterial culturing 8 h) [10, 15]: 3.99; proliferation rate of Lactobacillus gasseri ATCC 33323^T (mix-cultured bacteria after 8 h/single bacterial culturing 8 h) [10, 16]: 3.64; proliferation rate of Lactobacillus gasseri ATCC 33323^T (mix-cultured bacteria after 8 h/single bacterial culturing 8 h) [10, 17]: 2.88; number of proliferating bacteria of Lactobacillus gasseri ATCC33323T in combination with seven strains of Bifidobacterium bifidum compared to single bacterium culture ([10]; summary of Table 11): promoted"
"CC(=O)N[C@H]1[C@H](O[C@H]2[C@@H](O)[C@@H](CO)O[C@@H](O[C@H]3[C@H](O)[C@@H](O)C(O)O[C@@H]3CO)[C@@H]2O)O[C@H](CO)[C@@H](O[C@@H]2O[C@H](CO)[C@H](O)[C@H](O)[C@H]2O)[C@@H]1O (mixture of isomers) [LNnT, lacto-N-neotetraose]",1.41,3.87,19.98,4.17,3.58,4.21,2.39,6.03,promoted,had assimilability,0.719,0.008,0.522,0.370,0.535,0.373,"had no assimilability in 2′-FL or LNnT (HMOs), or a low assimilability",1.53,proliferation promotion effect of the number of bacteria of MCC-525 ([1]; in the combination with Bifidobacterium bifidum (NITE BP-1252)): significantly higher
